How the values were obtained:
olfactory receptor OR5K1 [1] = target: T1, olfactory receptor OR5K1 (Homo sapiens, UniProt Q8NHB7); assay: Luciferase reporter gene assay of olfactory receptor response in HEK293 cells; assay type: cell-based; settings: for Concentration-dependent response of OR5K1: 0, 3, 10, 30, 100, 300, and 1000 μM, HEK293 cells with RTP1S variant, FIG. 5
T1 construct: expressed in transfected cells; host or cells: HEK293
T1 sequence (Q8NHB7 1-308): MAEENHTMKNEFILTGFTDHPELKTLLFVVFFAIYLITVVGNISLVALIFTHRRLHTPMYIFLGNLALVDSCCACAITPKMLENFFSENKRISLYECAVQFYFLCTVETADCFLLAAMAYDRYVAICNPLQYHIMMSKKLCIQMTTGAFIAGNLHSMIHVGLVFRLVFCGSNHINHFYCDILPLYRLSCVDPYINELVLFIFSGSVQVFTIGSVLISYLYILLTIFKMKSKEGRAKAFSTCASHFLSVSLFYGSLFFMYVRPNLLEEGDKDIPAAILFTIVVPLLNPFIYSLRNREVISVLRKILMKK
Source text: Human olfactory receptors were cloned based on sequence information registered in GenBank by PCR using human genomic DNA female (G1521: Promega Corporation) as a template. Each gene amplified by FCR was incorporated into pENTR vector (Invitrogen Inc.) in accordance with the manual and recombined to the NotI and AscI sites located downstream of a Flag-Rho tag sequence in a pME18S vector using the NotI and AscI sites present on the pENTR vector.
An RTP1S variant gene (SEQ ID NO: 3) encoding an RTP1S variant (SEQ ID NO: 4) was incorporated into the EcoRI and XhoI sites of a pME18S vector.
HEK293 cells expressing 373 types of human olfactory receptors were produced. A reaction solution having a composition shown in Table 2 was prepared, left to stand in a clean bench for 15 min and then was dispensed in each well of a 96 well plate (Becton, Dickinson and Company). Subsequently, HEK293 cells (100 μL, 3×10^5 cells/cm^2) were seeded in each well and cultured in an incubator at 37° C. under 5 mass % CO2 for 24 hours.
An olfactory receptor expressed in HEK293 cells couples with endogenous Gas in the cells to activate adenylate cyclase and thereby increases the amount of intracellular cAMP. In this study, the odor response was measured by luciferase reporter gene assay which monitors an increase in amount of intracellular cAMP as the luminescence value derived from a firefly luciferase gene (fluc2P-CRE-hygro). A Renilla luciferase gene was fused with the downstream of a CMV promoter (hRluc-CMV) and was also introduced to HEK293 cells as an internal standard to correct errors in gene transfer efficiency and number of cells.
The culture medium was removed from the culture produced in the above 3), and 75 μL of a solution prepared with a CD293 medium (Invitrogen Inc.) so as to contain a pyrazine derivative (1 mM 2,6-dimethylpyrazine) was added thereto. The cells were cultured in a CO2 incubator for 2.5 hours to sufficiently express the luciferase gene in the cells. The luciferase activity was measured with a Dual-Glo™ luciferase assay system (Promega Corporation) in accordance with the operating manual of the system. The fold increases were calculated by dividing the luminescence value derived from firefly luciferase induced by stimulation with the odor substances by the luminescence value in cells not stimulated with the odor substances and were used as an index of response strength.
Olfactory receptor OR5K1 (SEQ ID NO: 2) was expressed in HEK293 cells together with an RTP1S variant (SEQ ID NO: 4) by the same procedure as in Test Example 3, and the dependency of the response on the concentration (0, 3, 10, 30, 100, 300, and 1000 μM) in various pyrazine compounds was investigated. The pyrazine compounds used in this Example were pyrazine and pyrazine derivatives selected from the group consisting of 2-methylpyrazine, 2,3-dimethylpyrazine, 2,5-dimethylpyrazine, 2,3,5-trimethylpyrazine, 2,3,5,6-tetramethylpyrazine, and 2-ethylpyrazine.

olfactory receptor OR5K1 [2] = target: T1, olfactory receptor OR5K1; assay: Antagonist activity against OR5K1 response to 2,6-dimethylpyrazine (luciferase assay, HEK293 cells); assay type: cell-based; settings: HEK293 cells expressing OR5K1; for Receptor response-inhibiting rate: 2,6-dimethylpyrazine 1 mM and test material 300 μM (cytotoxic perfumes: 333 μM and 100 JAM); for Antagonist activity on the response of OR5K1 to pyrazine derivatives: 2,6-dimethylpyrazine 1 mM and test material 300 μM
Description: Antagonist activities of 174 test materials against olfactory receptor OR5K1 were investigated by examining response of OR5K1 to a pyrazine derivative.
2,6-Dimethylpyrazine (1 mM) and each of the test materials (300 μM) were added to HEK293 cells expressing olfactory receptor OR5K1 by the same procedure as in Test Example 4, and the response of the olfactory receptor to 2,6-dimethylpyrazine was measured to evaluate a change in response of the receptor due to addition of the test material. Perfumes recognized to have cytotoxicity were re-evaluated using a mixture of 333 μM of 2,6-dimethylpyrazine and 100 JAM of a test material.
The receptor response-inhibiting rate of a test material was calculated as follows. The receptor activity (X−Y) by stimulation with 2,6-dimethylpyrazine alone was determined by subtracting the luminescence value (Y) in cells to which the receptor was introduced but were not stimulated with 2,6-dimethylpyrazine from the luminescence value (X) derived from firefly luciferase induced by odor stimulation with 2,6-dimethylpyrazine alone. Similarly, the receptor activity (Z−Y) in the presence of a test material was determined by subtracting the luminescence value (Y) in cells not stimulated with 2,6-dimethylpyrazine from the luminescence value (Z) stimulated with a mixture of 2,6-dimethylpyrazine and the test material. The reduction rate of the receptor activity (Z−Y) in the presence of a test material to the receptor activity (X−Y) by stimulation with 2,6-dimethylpyrazine alone was calculated by the following computation expression:
Inhibition rate (%)={1−(Z−Y)/(X−Y)}×100,
to determine the receptor response-inhibiting rate of the test material. In the measurement, multiple independent experiments were performed in duplicate, and the average of each experiment was used.

Concentration-dependent response of OR5K1 (olfactory receptor OR5K1 [1]) | Antagonist activity on the response of OR5K1 to pyrazine derivatives (olfactory receptor OR5K1 [2]) | Response of olfactory receptor OR5K1 (olfactory receptor OR5K1 [1]; 1 mM, screen of 373 types of human olfactory receptors in HEK293 cells, FIG. 4) | SMILES | Receptor response-inhibiting rate (olfactory receptor OR5K1 [2])
concentration-dependently responded |  |  | Cc1cnc(C)c(C)n1 [2,3,5-trimethylpyrazine] | 
 | no antagonist activity |  | CCCCCC1C(=O)CCC1CC(=O)OC (stereo not drawn) [Methyl dihydrojasmonate, methyl dihydrojasmonate] | Not inhibited
 | antagonist activity |  | CCC(=CCC1CC=C(C)C1(C)C)CO (stereo not drawn) [Bangalol, 2-ethyl-4-(2,2,3-trimethyl-3-cyclopenten-1-yl)-2-buten-1-ol] | 75% or more
concentration-dependently responded |  |  | Cc1nc(C)c(C)nc1C [2,3,5,6-tetramethylpyrazine] | 
concentration-dependently responded |  |  | Cc1cnc(C)cn1 [2,5-Dimethyl pyrazine, 2,5-dimethylpyrazine] | 
 | antagonist activity |  | CC(C=O)Cc1ccc(C(C)C)cc1 (stereo not drawn) [Cyclamen aldehyde, 2-methyl-3-(4-iso-propylphenyl)propanal] | 75% or more
did not respond |  |  | c1cnccn1 [pyrazine] | 
 | no antagonist activity |  | CC(C)CC1CC(C)(O)CCO1 (stereo not drawn) [Florosa, 4-methyl-2-(2-methylpropyl)tetrahydro-2H-4-pyranol] | Not inhibited
concentration-dependently responded |  |  | Cc1cnccn1 [2-Methyl pyrazine, 2-methylpyrazine] | 
 | antagonist activity |  | CCC=C(C)C(O)CCCCC (stereo not drawn) [Undecavertol, 4-methyl-3-decen-5-ol] | 75% or more
concentration-dependently responded |  | responded | Cc1cncc(C)n1 [2,6-Dimethyl pyrazine, 2,6-dimethylpyrazine] | 

SMILES | Concentration-dependent response of OR5K1 (olfactory receptor OR5K1 [1]) | Antagonist activity on the response of OR5K1 to pyrazine derivatives (olfactory receptor OR5K1 [2]) | Response of olfactory receptor OR5K1 (olfactory receptor OR5K1 [1]; 1 mM, screen of 373 types of human olfactory receptors in HEK293 cells, FIG. 4) | Receptor response-inhibiting rate (olfactory receptor OR5K1 [2])
Cc1nccnc1C [2,3-dimethylpyrazine] | concentration-dependently responded |  |  | 
CCc1cnccn1 [2-ethylpyrazine] | concentration-dependently responded |  |  | 
CC(=O)CCc1ccc(O)cc1 [Raspberry ketone, 4-(p-hydroxyphenyl)-2-butanone] |  | no antagonist activity |  | Not inhibited

Reference: US20130280188A1, “SELF-TANNING COSMETIC” (KAO CORPORATION, priority 2012, published 2013)
